Data published in patent publication US12264185B2, “Stabilized BCL9 peptides for treatment of aberrant Wnt signaling” (WntRx Pharmaceuticals Inc., priority 2015, dated 2025).

Legend:
HCT116 cells = type: cell-based
Experimental: The additional polypeptides were tested in a CellTiterGlo luminescent cell viability assay (Promega). ICG001 was used as a positive control in this assay.

[1] = Preliminary solubility study; type: physicochemical; details: water, DMSO, and PBS
[2] = Preliminary stability study of salt form; type: physicochemical; details: trifluroacetic acid salt form, 2-8° C. and room temperature, at least one month
CT26 cells = assay: cells
Experimental: CT26 cells were grown in F-bottom plates over 5 days. […] CellTiterGlo (Promega) cell viability assay. […] Doxorubicin is a known inhibitor of cell growth and was included as a control.

B16F10 cells = assay: B16F10 syngeneic model in C57BL/6 mice; type: in vivo
Experimental: C57BL/6 mice were inoculated with B16F10 cells. Female C57BL/6 mice aged 4-5 weeks were inoculated with B16F10 cells (2×10^5 cells in 0.05 ml per mouse) in the right flank. When the average tumor size of the mice reached 100 mm^3, the mice were divided into two groups (N=6). […] The treatment was intraperitoneally administered daily for 14 consecutive days.
The treatment was intraperitoneally administered daily for 12 consecutive days. At the end of the treatment, the mice were sacrificed and tumor and blood samples were collected in anticoagulation tubes. Single cell separation was performed for each sample and then stained for FACS analysis. For cell surface staining, CD45-PerCP-Cy5, CD4-FITC, CD8-PE-Cy7, and CD25-PE were used. The tumor samples were then stained with either an anti-CD4 antibody or an anti-CD8 antibody to assess the presence of T cells in the tumor samples. The tumor samples were also stained with an anti-CD194 antibody and anti-CD196 antibody to assess the presence of T helper 17 cells in the tumor samples.
The process of constructing WX-039 is described in Example 10. C57BL/6 mice were inoculated with B16F10 cells. […] The treatment was intraperitoneally administered daily for 12 consecutive days. At the end of the treatment, the mice were sacrificed and tumor and blood samples were collected in anticoagulation tubes. Tumor cells collected from the experiment were stained as described above and also with anti-CD205 antibody to assess whether WX compounds are capable of modulating dendritic cells.
The ability of WX-039 to suppress tumor growth was assessed in the animal model described in Example 5.4. Briefly, C57BL/6 mice were inoculated with B16 cells. Female C57BL/6 mice aged 5 weeks were inoculated with B16F10 cells (2×10^5 cells in 0.05 ml per mouse) in the right flank. When the average tumor size of the mice reached 100 mm^3, the mice were divided into two groups (N=3). The first group was administered 60 mg/kg WX-039 while the second group was treated with a vehicle. The treatment was intraperitoneally administered daily for 12 consecutive days.

NCI-H1299-Luc cells = assay: NCI-H1299-Luc orthotopic model in balb/c nude mice; type: in vivo; details: 15 mg/kg i.v. daily, 10 days
Source text: Orthotopic mouse models are useful to visualize the effect of an anti-tumor compound on a tumor implanted in a mouse and to assess the effect of the compound on tumor metastasis. An orthotropic model utilizing the NCI-H1299-Luc cell line (non-small-cell lung carcinoma cell line expressing luciferase) was selected for this experiment. Upon uptake of luciferin substrate, these cells are capable of producing bioluminescence. Proliferation of the NCI-H1299 cell line is dependent on Pygopus (Pygo) 2/β-catenin transcription activity, in which TCF-1 transcription factors (BCL9, β-cat and Pygo) form a transcription complex to initiate transcription.
The mice were about 5 weeks of age. NCI-H1299-Luc cells (5×10^6) in 50 μL in PBS were injected into each mouse lung with a syringe.
The bioluminescence intensity (total Flux [p/s]) of each mouse was measured periodically throughout the study according to manufacturer protocol (Xenogen ivis imaging system, PerkinElmer).

[3] = Toxicokinetics, 14 days i.p., female balb/c mice; details: for half-life: female, balb/c, mouse, plasma, ip
[4] = 20 mg/kg WX-024 or 60 mg/kg WX-039 i.p. daily, 12 days
[5] = IP-10 mg/kg, after the first dosing (day 1)
[6] = IP-15 mg/kg, after the first dosing (day 1)
[7] = IP-20 mg/kg, after the first dosing (day 1)

With `CC[C@H](C)[C@@H]1NC(=O)[C@@](C)(NC(=O)[C@H](CCCNC(=N)N)NC(=O)[C@H](CC(C)C)NC(=O)[C@@H](NC(=O)[C@H](CCC(N)=O)NC(=O)[C@H](CC(C)C)NC(C)=O)[C@@H](C)O)CCCC=CCCC[C@@](C)(C(=O)N[C@@H](CC(C)C)C(=O)N[C@@H](Cc2ccc3ccccc3c2)C(N)=O)NC(=O)[C@H](CCCNC(=N)N)NC(=O)[C@H](CCC(N)=O)NC1=O` [WX-024, LQTLRXaa1IQRXaa2L] the IC50 (HCT116 cells) was 1920 nM, the “inhibition of cell growth” value (HCT116 cells; HCT116 cells, CellTiterGlo) was “particularly effective” and the solubility [1] was ≥ 1000 µg/mL. The stability [2] was “stable”, the IC50 (CT26 cells) was 1750 nM and the “T helper 17 cells in tumor” value (B16F10 cells; [4]) was “more effective than WX-039”. For the same compound, the “dendritic cells (CD205+) in tumor” value (B16F10 cells; [4]) was “significantly reduced”, the “CD4+ positive cells in tumor samples” value (B16F10 cells; 25 mg/kg i.p. daily, 12 days) was “increased” and the “CD8+ positive cells in tumor samples” value (B16F10 cells; 25 mg/kg i.p. daily, 12 days) was “increased”. For the same compound, the “tumor growth compared to vehicle” value (B16F10 cells; 25 mg/kg i.p. daily, 14 days) was “effectively reduced tumor growth”, the “tumor formation and growth (bioluminescence total flux)” value (NCI-H1299-Luc cells) was “almost completely blocked tumor formation and growth in vivo” and the AUCINF [3, 5] was 117 µg·h/mL. For the same compound, the AUClast [3, 5] was 114333 ng·h/mL, the Cmax [3, 5] was 11390 ng/mL and the “Terminal t1/2” value [3, 5] was 4.52 h. It also gave a Tmax [3, 5] of 1.50 h, a Cmax ([3]; IP-10 mg/kg, after the last dosing (day 14)) of 11360 ng/mL and an AUCINF [3, 6] of 129.1 µg·h/mL. The AUClast [3, 6] was 118,033 hr*ng/mL, the Cmax [3, 6] was 9767 ng/mL and the “Terminal t1/2” value [3, 6] was 7.59 h. For the same compound, the AUCINF [3, 7] was 175.333 µg·h/mL, the AUClast [3, 7] was 162,333 hr*ng/mL and the Cmax [3, 7] was 12733 ng/mL. The “Terminal t1/2” value [3, 7] was 6.47 h, the Tmax [3, 7] was 2.67 h and the half-life ([3]; 10 mg/kg) was 6.97 h. For the same compound, the half-life ([3]; 15 mg/kg) was 4.25 h and the half-life ([3]; 20 mg/kg) was 4.55 h.
